“Also recorded” adds a separate entry of the source.
How the values were obtained:
[1] = test system: primary human fibroblasts; experiment: Luciferase gene expression after adenovirus-aided transferrinfection of primary human fibroblasts; format: cell-based; conditions: for improvement in gene expression: absence of E1B 19K, dexamethasone 10 μM, ibuprofen 100 μM, 5,8,11-eicosatriynoic acid 30 μM; for Induction (-fold) of luciferase expression: 3 μM dexamethasone, 24 hours after transfection
Protocol: Samples of biotinylated, psoralen/UV-inactivated adenovirus dl1014 (8 μl, 1×10^12 particles/ml) were diluted in 150 μl of HBS and mixed with 1 μg of StpL in […] of HBS for 30 minutes at ambient temperature. Aliquots of 6 μg of plasmid DNA (in the case of mixtures of pCMVL-DNA and another plasmid the ratio was 5:1) were diluted in 100 μl of HBS and then mixed with the adenovirus/StpL solution for 30 minutes at ambient temperature. Finally, a 100 μl aliquot of HBS, containing 5 μg of TfpL, was added to each sample, followed by 30 minutes' incubation at ambient temperature.
After surgical removal, skin biopsies were added to 4° C. DMEM containing 10% heat-inactivated FCS, 2 mM glutamine and gentamycin. The biopsies were carefully cut up in a tissue culture device using forceps and a surgical blade in a laminar air current in sterile 6 cm plastic dishes. Then 3 ml of DMEM, containing 20% FCS, 2 mM glutamine and antibiotics were added and the culture was placed in an incubator at 37° C. After 10 days the medium was replaced by DMEM containing 10% FCS. Then the medium was changed a further 2 times a week. 4 weeks after the start of cultivation the cells which had grown out of the tissue fragments were trypsinised and plated out into new culture dishes for transfection.
(§1) The luciferase activity was determined as described in WO 93/07283.
First of all, a series of experiments were carried out intended to establish whether the expression of certain adenovirus genes is capable of intensifying gene expression after transferrinfection. A defined quantity of the luciferase expression plasmid pCMVL (5 μg) was mixed with various plasmid DNA (1 μg in each), incorporated in TfpL/StpL/adenovirus transfection complexes (total volume 500 μl) and applied to primary human fibroblasts (50 μl of complex were applied to 2×10^4 cells per well in a 24-well plate, corresponding to 2.5×10^4 virus particles per cell, the measurements being carried out three times. In FIG. 4 “minus” denotes pSP65; the test DNA is specified in each case). The luciferase activity obtained was measured 48 to 72 hours after transfection. […] The E1 region contains two main gene functions, E1A and E1B. (The E1A products have the effect of separating E2F from the Rb protein and on the other hand they modulate the transcription activity of numerous cellular and adenovirus promoters. The main transcription-transactivator function is contained in the 13S gene product. The 1B gene codes for two main functions: the E1B 55K gene product binds p53 and changes its function. It is assumed that the 19K E1B gene product acts underneath p53 in order to block the apoptotic response).
In order to do this, transfection complexes containing pCMVL plus the plasmid pSP65, or the plasmids which contained the sequence for Bcl-2, E1A or E1B 19K (the quantities of reporter plasmid pCMVL and the relevant test plasmid were 5 μg and 1 μg, respectively, as in the previous Example), with virus particle numbers of 3×10^4 (FIG. 5A), 10^4 (FIG. 5B) or 3×10^3 (FIG. 5C) per cell were applied to primary fibroblasts and the luciferase activity was measured over a period of time. The transfections were carried out as described in the preceding Examples, the cells being given 6, 18 or 60 μl of transfection complex per well, containing 2×10^4 fibroblasts.
(In these experiments, the cells in a well were given 18 μl of transfection complex.) From day 10 onwards, the culture medium was replaced with fresh medium daily; the idea of this procedure was to lower the concentrations of toxins by changing the medium.

[2] = test system: IL-6 promoter (NF-IL-6/NF-KB); experiment: IL-6 promoter luciferase reporter activation in A549 IL-6 cells; format: cell-based, human; conditions: A549/NF-IL-6 luciferase; 10 h; PMA 10^−8M, virus 10^4 Particle/cell
Source text: The construct described by Matsusaka et al., 1993 was used, which contains the luciferase sequence driven by the IL-6 promoter.
(§2) In order to prepare the clonal cell lines, containing the reporter plasmid pNF-KB-Luc or pIL-6-Luc, the human lung cancer cell line A549 (ATCC CCL 185) was used as starting material. The plasmids were co-transfected with the neomycin-phosphotransferase-expression plasmid designated pmuatt (a pUC19 plasmid containing the TKneo-sequence; Grosveld et al., 1982) using the transfectam method (Behr et al., 1989) and selected for cells which are resistant to 400 μg/ml of G418 (Sigma). Clonal derivatives which expressed luciferase after induction by PMA were identified and expanded.
as §1
(§3) Stable clones of the lung epithelial carcinoma cell line A549 were produced, which contained pNF-KB-luc or pIL-6-luc as reporter gene construct. […]
In order to determine the time sequence of the NF-IL-6-and NF-KB-activation, the cells of the two cell lines which were found in the above quantities in a 24 well plate or 6 well plate were each treated with 10^4 adenovirus dl1014 virus particles per cell (which corresponded to 4×10^8 virus particles for each well of the A549 NF-KB cells or 4×10^9 virus particles for each well of the A549 IL-6 cells). […]

NF-KB = NF-KB luciferase reporter activation in A549 NF-KB cells; format: cell-based, human; conditions: 11 h, LPS 2.5 μg/ml, PMA 10^−8M
Source text: The plasmid pNF-KB-Luc responding to NF-KB was constructed as a derivative of the plasmid pTK3kbB described by Boehmelt et al., 1992. In order to do this, pTK3kbB was cut with XhoI and NcoI in order to remove the majority of the sequence coding for CAT, treated with Klenow enzyme and ligated with a Klenow-treated HindIII/SspI fragment of PRSVL, containing the luciferase sequence (De Wet et al., 1987). This yielded the plasmid p3K-Luc which contains a triple binding site for the transcription factor NF-KB plus the luciferase sequence, driven by a thymidine kinase (TK) TATA box.
as §2, §1, §3

For `CCCCCCCCC#CCC#CCC#CCCCC(=O)O` [5,8,11-eicosatriynoic acid], the “improvement in gene expression” value [1] was “only dexamethasone brings about a substantial improvement” and the “effect on gene expression” value ([1]; presence of E1B 19K, dexamethasone 10 μM, 5,8,11-eicosatriynoic acid 30 μM) was “synergistic effect”.

With `C[C@@H]1C[C@H]2[C@@H]3CCC4=CC(=O)C=C[C@]4(C)[C@@]3(F)[C@@H](O)C[C@]2(C)[C@@]1(O)C(=O)CO` [Dexamethasone, dexamethasone] the “Induction (-fold) of luciferase expression” value ([1]; pCMVL/pCMV19K) was 2.71 -fold and the “Induction (-fold) of luciferase expression” value ([1]; pCMVL/pSP65 (absence of pCMV19K)) was 1.65 -fold.

With `CCCCCCCCCCCCCC(=O)O[C@@H]1[C@@H](C)[C@@]2(O)[C@@H](C=C(CO)C[C@]3(O)C(=O)C(C)=C[C@@H]23)[C@@H]2C(C)(C)[C@]12OC(C)=O` [PMA, Phorbolmyristylacetate] the “Increase (-fold)” value [2] was 2.0 (10 h) -fold and the “Increase (-fold)” value (NF-KB) was 2.0 (11 h) -fold.

`CC(=O)Oc1ccccc1C(=O)O` [aspirin, acetylsalicylic acid] was tested, and the “effect on gene expression (luciferase) over time” value ([1]; 10 μM dexamethasone or 2 mM Aspirin from 2 hours after transfection, with and without E1B 19K) was “increase in gene expression both in the presence and in the absence of E1B 19K; also recorded: less marked than that of dexamethasone” and the “interaction with the E1B 19K gene in increase of gene expression” value ([1]; 10 μM dexamethasone or 2 mM Aspirin, pCMV19K co-transfected) was “synergistic effect”.

For `CC(C)Cc1ccc(C(C)C(=O)O)cc1` (stereo not drawn) [ibuprofen, Ibuprofen], the “improvement in gene expression” value [1] was “only dexamethasone brings about a substantial improvement”.

From patent US20020049313A1, “Method for introducing foreign material into higher eukaryotic cells” (priority 1994, published 2002)
